# Results from patent publication US7087634B2, “Cyclic AMP-specific phosphodiesterase inhibitors” (ICOS Corporation, priority 1999, dated 2006).
# Assays:
# Assay type in all cases: biochemical
# PDE5 = biological target: T1, PDE5 (Homo sapiens, UniProt O76074); experiment: Inhibition of PDE5
# T1 construct: made in house; host or cells: Saccharomyces cerevisiae BJ2-54
# Procedure: Recombinant production of human PDE1B, PDE2, PDE4A, PDE4B, PDE4C, PDE4D, PDE5, and PDE7 was carried out similarly to that described in Example 7 of U.S. Pat. No. 5,702,936, incorporated herein by reference, except that the yeast transformation vector employed, which is derived from the basic ADH2 plasmid described in Price et al., Methods in Enzymology, 185, pp. 308–318 (1990), incorporated yeast ADH2 promoter and terminator sequences and the Saccharomyces cerevisiae host was the protease-deficient strain BJ2–54 deposited on Aug. 31, 1998 with the American Type Culture Collection, Manassas, Va., under accession number ATCC 74465. Transformed host cells were grown in 2×SC-leu medium, pH 6.2, with trace metals, and vitamins. After 24 hours, YEP medium-containing glycerol was added to a final concentration of 2×YET/3% glycerol. […]
# Phosphodiesterase activity of the preparations was determined as follows. […] The [32P]5′-AMP or [32P]5′-GMP then was quantitatively converted to free [32P]phosphate and unlabeled adenosine or guanosine by the action of snake venom 5′-nucleotidase. […] PDE enzyme was present in quantities that yield <30% total hydrolysis of substrate (linear assay conditions). […] After centrifugation (750×g for 3 minutes) to sediment the charcoal, a sample of the supernatant was taken for radioactivity determination in a scintillation counter and the PDE activity was calculated. […]
# PDE1C = biological target: T2, PDE1C (Homo sapiens, UniProt Q14123); experiment: Inhibition of PDE1C
# T2 construct: Plasmid Hcam3aBB contained the complete open reading frame of PDE1C3; made in house; host or cells: Sf9 (baculovirus)
# PDE1A = biological target: T3, PDE1A (Homo sapiens, UniProt P54750); experiment: Inhibition of PDE1A
# T3 construct: Plasmid pBB-PDE1A3/6 contained the complete open reading frame of PDE1A3; made in house; host or cells: Sf9 (baculovirus)
smiles,measurement,setting,value
"CCOC(=O)c1c(C)nn(-c2cccc([N+](=O)[O-])c2)c1C [Example 2, 3,5-dimethyl-1-(3-nitrophenyl)-1H-pyrazole-4-carboxylic acid ethyl ester]",IC50,PDE5,25.6 µM
same,IC50,PDE1C,30.2 µM
same,IC50,PDE1A,25.1 µM
